This passage reports IC50 results from BindingDB's records for doi:10.1016/j.ejmech.2019.05.014 (Xuzhou Medical University, 2019).

Where only a bound is given, the exact number is not on record here.

The nature of experiment [1]: Inhibition of capsid protein in Hepatitis B virus infected in human HepG2.2.15 cells assessed as reduction in viral DNA level at 4 uM supplemented with fresh medium containing compound every 2 days and measured after 6 days by RT-PCR analysis.
Experiment [2] in a line: Inhibition of capsid protein in lamivudine/entecavir-resistant Hepatitis B virus harboring rtL180M/rtM204V/rt184L mutant infected in human HepG2.2.15 cells assessed as reduction in viral DNA level measured after 72 hrs by PCR analysis.

As for `COc1ccc(C(C)=O)cc1CSc1nc2ccccc2c(=O)n1Cc1cccs1`, the IC50 in experiment [1] was determined as 4070 nM.

As for `COc1ccccc1CSc1nc2ccc(F)cc2c(=O)n1Cc1cccs1`, in experiment [1], the concentration for half-maximal inhibition (IC50) amounted to 2480 nM. Turning to `Nc1ccn([C@@H]2CS[C@H](CO)O2)c(=O)n1` [Epivir], the values for the IC50 in experiment [2] and in experiment [1] were more than 100000 nM and less than 100 nM, respectively. Turning to `CN(C)CCOc1ccc2nc(SCc3ccccc3)n(Cc3cccs3)c(=O)c2c1`, the IC50 in experiment [2] turned out to be 1900 nM; in experiment [1], 1540 nM. For `CCN(CC)CCOc1ccc2nc(SCc3ccccc3OC)n(Cc3cccs3)c(=O)c2c1`, the IC50 in experiment [1] worked out at 1930 nM. On the same count and under the same terms, then `COc1ccccc1CSc1nc2ccccc2c(=O)n1Cc1cccs1`, with 2810 nM. Consider `CCN(CC)CCOc1ccc2nc(SCc3ccccc3)n(Cc3cccs3)c(=O)c2c1`, for which the IC50 in experiment [2] is 840 nM; in experiment [1], 710 nM.

For orientation: IC50 means the concentration that gives 50% inhibition.
